# Experimental data as given in patent US20240391931A1 (Bristol-Myers Squibb Company, priority 2021, published 2024).
# How the values were obtained:
# BT474 cells = test: Cellular proliferation in BT474 cells (CellTiter Glo); assay type: cell-based, human; conditions: Homo sapiens, BT-474, BT474 cells, 120 h, redosed after 72 h
# Description: (§1) In addition to the engineered cell lines, the following cell lines were used: BT474 (human breast carcinoma), N87 (human gastric carcinoma), NCI-H1781 (human lung adenocarcinoma), and A431 (human epidermoid carcinoma); all cell lines were obtained from the American Type Culture Collection (ATCC, Manassas, VA). NCI-H1781 were grown in complete RPMI 1640 (Life Technologies, Carlsbad, CA) supplemented with 15% fetal bovine serum (FBS, Life Technologies, Carlsbad, CA) and 1% Penicillin-Streptomycin (P/S, Life Technologies, Carlsbad, CA). N87 cells were grown in complete RPMI 1640 supplemented with 10% FBS and 1% P/S. BT474 and A431 cells were grown in DMEM (Life Technologies, Carlsbad, CA) supplemented with 10% FBS and 1% P/S. All cells were maintained and propagated in a humidified 5% CO2 incubator at 37° C.
# (§2) Cell proliferation in adherent cells was investigated in two HER2 amplified cell lines (BT474, N87), and a HER2VC expressing cell line (NCI-H1781). BT474, NCI-H1781, and N87 were plated in their appropriate growth media supplemented with either 10% FBS (BT474, N87) or 15% FBS (NCI-H1781) and 1% P/S in 96-well white clear-bottom tissue culture plates (Costar, Sigma-Aldrich). The starting cell densities were 3500, 5500, and 5000 cells for BT474, NCI-H1781, and N87 cells, respectively. An 8-point standard curve with varying cell densities (starting at 50000 cells and serially diluting down 2-fold) was prepared for each cell line and read 6 h after plating. Cells were allowed to attach overnight prior to compound treatment. Compound solutions were prepared by serially diluting test compounds in DMSO (Sigma-Aldrich), then diluting 500× in their corresponding serum free media. Cells were treated by adding a 1:1 volume of test compound to a final concentration of […], 0.004, 0.0014, or 0.0005 μM, in 0.1% DMSO and 5% FBS (for BT474 and N87) or 7.5% FBS (NCI-H1781). In BT474 and NCI-H1781, cell media was replaced and cells were redosed with fresh test compound solutions after 72 h. Viability was determined by CellTiter Glo (Promega, Madison, WI) after 72 h for N87 cells, and after 120 h for BT474 and […] cells. The results were converted to cell numbers using a standard curve; growth inhibition (GI50 values) were determined by Graph Pad Prism. […] The results are provided in Table 4, under columns titled “BT474-GI50”, “N87-GI50”, and “NCI-H1781-GI50”.
# N87 cells = test: Cellular proliferation in N87 cells (CellTiter Glo); assay type: cell-based, human; conditions: Homo sapiens, 72 h
# Description: as §1, §2
# HER2VC (G776delinsVC) = target: T1, HER2VC (G776delinsVC) (Homo sapiens, UniProt P04626, G776C/INS775V); test: HER2 signaling (pHER2) in NCI-H1781 cells; assay type: cell-based; conditions: 1.5 hr compound, 1% FBS
# T1 construct: NCI-H1781 cells which endogenously expresses a HER2 mutant protein; endogenous in cells; host or cells: NCI-H1781
# T1 sequence (P04626 with tags, fused parts or gaps INS775V/G776C): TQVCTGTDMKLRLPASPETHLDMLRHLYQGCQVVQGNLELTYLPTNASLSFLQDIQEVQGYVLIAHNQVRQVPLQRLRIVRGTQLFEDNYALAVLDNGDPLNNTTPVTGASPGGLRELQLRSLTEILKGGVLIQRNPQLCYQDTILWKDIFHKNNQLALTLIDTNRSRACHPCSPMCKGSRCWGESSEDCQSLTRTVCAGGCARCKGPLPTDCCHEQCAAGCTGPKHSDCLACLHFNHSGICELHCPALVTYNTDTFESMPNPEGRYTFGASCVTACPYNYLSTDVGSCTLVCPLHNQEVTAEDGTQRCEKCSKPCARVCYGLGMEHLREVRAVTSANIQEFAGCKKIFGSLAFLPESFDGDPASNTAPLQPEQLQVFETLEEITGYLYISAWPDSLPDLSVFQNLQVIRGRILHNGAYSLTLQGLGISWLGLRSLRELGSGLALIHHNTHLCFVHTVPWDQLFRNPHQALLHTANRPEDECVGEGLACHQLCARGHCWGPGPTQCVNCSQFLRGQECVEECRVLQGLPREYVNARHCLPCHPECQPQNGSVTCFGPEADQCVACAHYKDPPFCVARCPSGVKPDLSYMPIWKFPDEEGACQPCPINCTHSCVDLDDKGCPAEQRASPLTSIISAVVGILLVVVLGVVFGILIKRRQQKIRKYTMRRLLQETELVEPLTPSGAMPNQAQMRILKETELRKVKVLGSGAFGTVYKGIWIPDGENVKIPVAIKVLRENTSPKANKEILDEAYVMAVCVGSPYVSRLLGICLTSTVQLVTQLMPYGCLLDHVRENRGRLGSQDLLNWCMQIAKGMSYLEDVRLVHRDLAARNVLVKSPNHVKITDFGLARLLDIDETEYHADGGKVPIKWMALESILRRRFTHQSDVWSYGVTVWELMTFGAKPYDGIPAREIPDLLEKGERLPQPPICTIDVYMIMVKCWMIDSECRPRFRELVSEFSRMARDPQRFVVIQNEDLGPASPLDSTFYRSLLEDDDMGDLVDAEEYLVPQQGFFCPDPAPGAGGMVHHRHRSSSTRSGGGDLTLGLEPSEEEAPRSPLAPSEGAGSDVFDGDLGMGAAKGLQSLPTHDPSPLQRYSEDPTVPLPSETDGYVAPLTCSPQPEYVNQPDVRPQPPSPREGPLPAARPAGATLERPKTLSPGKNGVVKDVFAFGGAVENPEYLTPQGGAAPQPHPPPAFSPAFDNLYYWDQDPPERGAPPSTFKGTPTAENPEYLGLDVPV
# Description: as §1
# HER2 signaling was assessed in BT474 and N87 cell lines which endogenously overexpress the HER2 wildtype (WT) protein, in NCI-H1781 cells which endogenously expresses a HER2 mutant protein containing a VC insertion in the kinase domain (HER2VC or G776delinsVC), and in engineered cell lines transduced to express the Her2 mutant protein containing the YVMA insertion (Hek293-HER2YVMA and BEAS2B-HER2YVMA).
# BT474, N87, and NCI-H1781 were plated in 96-well tissue-culture treated plates (Corning Costar, Sigma-Aldrich) in full media and incubated overnight. Hek293-HER2YVMA and BEAS2B-HER2YVMA cells were plated in 96-well poly-D-lysine treated plates (BD Bioscience, San Jose, CA). For treatment with test compounds, the media was replaced with corresponding low serum media (1% FBS) containing test compound at 1.1, 0.37, 0.12, 0.041, 0.014, 0.005, 0.0014, 0.0005 μM or DMSO control (0.1%). Cells were incubated with compound for 1.5 hr at 37° C. After compound treatment, the media was removed and cells were lysed for 30 min on ice in complete MSD lysis buffer (prepared using MSD base lysis buffer (Meso-Scale Discovery) supplemented with cOmplete, EDTA-free Protease inhibitor cocktail (Roche), Phosphatase Inhibitor Cocktails 2 and 3 (Sigma-Aldrich), and 1 mM PMSF (Sigma-Aldrich)). Lysates were stored at −70° C. until further analysis.
# HER2 signaling was evaluated using phospho (Tyr1248)/total ErbB2 whole cell lysate MSD plates (Meso-Scale Discovery, Gaithersburg, MD). The phospho HER2 signal was normalized to total HER2 for each sample; results are reported as % DMSO control. The normalized data was fitted using a sigmoidal curve analysis program (Graph Pad Prism version 6) with variable Hill slope to determine EC50 values.
# The HER2 signaling results are provided in Table 4, under columns titled “BT474-pHER2 EC50”, “N87-pHER2 EC50”, and “NCI-H1781-pHER2 EC50”. Hek293-HER2YVMA ins fall under the heading “HEKYVMA-pHER2 EC50”, Ba/F3 HER2YVMA fall under the heading “Ba/F3 YVMA-pHER2 EC50” and BEAS2B-HER2YVMA fall under the heading “BEAS2B YVMA-pHER2 EC50”.
# EGFR = EGFR (Homo sapiens, UniProt P00533); test: EGFR signaling (pEGFR Tyr1068/total EGFR MSD) in A431 cells; assay type: cell-based; parameters: endogenous in cells; host or cells: A431, N87; conditions: for EC50: A431 cells, read-out: A431 pEGFR EC50; for Selectivity A431 EC50/BT474 EC50: ratio A431 pEGFR EC50 to BT474 pHER2 EC50; for Selectivity A431 EC50/HEKYVMA EC50: ratio A431 pEGFR EC50 to HEK YVMA pHER2 EC50
# Sequence of EGFR (P00533 25-1210): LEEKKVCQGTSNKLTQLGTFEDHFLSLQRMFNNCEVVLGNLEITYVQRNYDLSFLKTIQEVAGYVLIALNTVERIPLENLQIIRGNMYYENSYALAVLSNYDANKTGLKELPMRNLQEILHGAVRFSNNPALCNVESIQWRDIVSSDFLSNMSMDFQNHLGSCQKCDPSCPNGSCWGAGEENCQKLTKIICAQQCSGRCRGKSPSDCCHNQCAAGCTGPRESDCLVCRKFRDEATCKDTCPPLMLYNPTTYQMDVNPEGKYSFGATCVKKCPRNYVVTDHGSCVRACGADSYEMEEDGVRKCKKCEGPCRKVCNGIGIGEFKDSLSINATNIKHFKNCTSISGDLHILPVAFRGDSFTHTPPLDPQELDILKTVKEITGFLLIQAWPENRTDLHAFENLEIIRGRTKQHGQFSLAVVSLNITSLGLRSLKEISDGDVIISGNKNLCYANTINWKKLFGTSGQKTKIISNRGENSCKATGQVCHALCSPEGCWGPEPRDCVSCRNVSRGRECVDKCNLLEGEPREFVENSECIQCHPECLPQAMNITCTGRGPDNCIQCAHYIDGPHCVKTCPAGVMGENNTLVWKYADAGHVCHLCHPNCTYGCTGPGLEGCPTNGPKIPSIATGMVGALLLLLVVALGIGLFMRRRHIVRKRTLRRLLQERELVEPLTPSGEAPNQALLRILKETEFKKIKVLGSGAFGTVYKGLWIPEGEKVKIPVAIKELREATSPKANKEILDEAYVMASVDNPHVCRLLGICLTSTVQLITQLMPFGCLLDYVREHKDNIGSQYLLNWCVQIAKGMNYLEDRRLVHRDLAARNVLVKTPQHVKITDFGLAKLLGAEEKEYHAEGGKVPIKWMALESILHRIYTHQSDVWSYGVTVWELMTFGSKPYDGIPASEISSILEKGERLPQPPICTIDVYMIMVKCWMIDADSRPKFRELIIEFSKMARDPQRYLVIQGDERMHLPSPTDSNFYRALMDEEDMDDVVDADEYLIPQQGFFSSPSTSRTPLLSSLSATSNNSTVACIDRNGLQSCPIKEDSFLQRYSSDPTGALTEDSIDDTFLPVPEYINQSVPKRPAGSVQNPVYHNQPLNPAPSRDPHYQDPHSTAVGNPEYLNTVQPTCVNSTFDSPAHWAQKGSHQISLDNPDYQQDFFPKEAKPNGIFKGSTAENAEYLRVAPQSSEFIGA
# How it was run: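 EC50 was fitted with variable Hill slope from MSD pTyr1068/total EGFR ratios, expressed as % DMSO control. A431 cells were starved overnight, then exposed 1.5 h to eight concentrations from 10 to 0.005 μM in 1% FBS before a 10-min 100 ng/mL EGF pulse.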
SMILES,GI50 (BT474 cells) [nM],GI50 (N87 cells) [nM],EC50 (HER2VC (G776delinsVC)) [nM],EC50 (EGFR) [nM],Selectivity A431 EC50/BT474 EC50 (EGFR),Selectivity A431 EC50/HEKYVMA EC50 (EGFR)
"Cc1cc(Nc2ncnc3sc4c(c23)CCN(C(=O)/C=C/CN(C)C)C4)ccc1Oc1ccc(N(C)C)nc1 [Compound 158, (E)-4-(dimethylamino)-1-(4-((4-((6-(dimethylamino)pyridin-3-yl)oxy)-3-methylphenyl)amino)-5,8-dihydropyrido[4′,3′:4,5]thieno[2,3-d]pyrimidin-7(6H)-yl)but-2-en-1-one]",< 100,< 100,< 100,100 to 1000,B (B: ≥ 20 and < 100),B (B: ≥ 20 and < 100)
COc1ccc(Oc2ccc(Nc3ncnc4sc5c(c34)CCN(C(=O)/C=C/CN3CCOCC3)C5)cc2C)cn1 [Compound 164],< 100,< 100,< 100,100 to 1000,C (C: ≥ 10 and < 20),D (D: ≥ 5 and < 10)
